According to patent publication US20120053189A1, “BTK INHIBITORS FOR THE TREATMENT OF IMMUNE MEDIATED CONDITIONS” (Pharmacyclics, Inc., priority 2010, published 2012):
Entries after “also recorded” stand apart in the source; their conditions may differ. Read-outs that look alike come from different tables or passages of the source. Blank lines part the entries; values can stand above or below the compound they belong to.

Legend:
[1] = system: CD3+ T cells; assay: T cell viability; assay type: cell-based, human; conditions: concentrations below 10 μM
Experimental: (§1) CD20+ B and CD3+ T cells were purified by negative selection (RosetteSep, >90% purity) from Buffy coat PBMC and viably frozen in 10% DMSO. Cells were thawed at 37° C. and maintained in growth media (RPMI media containing 10% FCS). B cells were stimulated with goat anti-human IgM F(ab′)2 (10 ug/ml, Invitrogen) and T cells were stimulated with anti-CD3/CD28 coated beads (Dynabeads) at a 1:1 bead/cell ratio. Cells were stained with PE-CD69 (BD) and analyzed by flow cytometry, gating on viable lymphocytes. […] For washout experiments, cells were rinsed 3× in 10 volumes of growth media, a protocol that was confirmed to completely wash away inhibition of BCR signaling by a reversible Btk inhibitor.

[2] = in vivo; conditions: CDIGS, rat
[3] = interspecies scaling of clearance and estimation of efficacious human daily dosage; conditions: FIG. 7
Experimental: There is an excellent scaling of clearance (dose/AUC) within mice, rats and dogs, and therefore exposure to dose projection in humans is likely precise. Based on interspecies scaling of clearance, the human BW normalized CL/F was determined to be about 2.53 (FIG. 7).

[4] = molecular target: Abl (Homo sapiens, UniProt P00519); assay: kinase selectivity, Abl; assay type: biochemical
[5] = system: RAW264.7 cells; assay: IgG mediated phagocytosis of Zymosan particles; assay type: cell-based, murine; conditions: IgG opsonized Zymosan particles, RAW cells
Experimental: Prelabeled Zymosan particles were first opsonized with mouse IgG at 37 C for 30 min, and then centrifuged down and washed several times with PBS. The Zymosan particles are the resuspended in PBS.

[6] = molecular target: VEGFR2 (Homo sapiens, UniProt P35968); assay: kinase selectivity, VEGFR2; assay type: biochemical
[7] = hepatic extraction ratio in rats; assay type: in vivo; conditions: oral, 1-(AUC systemic÷AUC portal)
Experimental: The analyses were performed using nominal sample times and a noncompartmental method with uniform weighting. Pharmacokinetic parameter estimates included terminal half-life and area under the concentration-time curve (AUC). Extraction ratios were calculated as 1-(AUC systemic÷AUC portal).

[8] = system: murine collagen-induced arthritis (CIA) model; assay: murine collagen-induced arthritis (CIA) model; assay type: in vivo, mice; conditions: for inflammatory synovitis, pannus formation, synovial fluid cytokines, cartilage damage and bone erosion: preventive and established murine CIA models
Experimental: Male mice 7 weeks of age were purchased from Harlan Laboratories, and acclimated for a minimum of 3 days. Mice were immunized on Day 0 with 150 μg of bovine collagen II (Chondrex Inc) in CFA (Sigma), and boosted with 100 μg of bovine collagen II in IFA on day 21. Fore and hind paws of mice were scored daily with a clinical scoring system using the following criteria:
0=normal 1=1 hind or fore paw joint affected • with minimal diffuse swelling and erythema (redness of the skin due to congestion of the capillaries)
2=2 hind or fore paw joints affected • with minimal diffuse swelling and erythema (redness of the skin due to congestion of the capillaries)
3=3 hind or fore paw joints affected • with minimal diffuse swelling and erythema (redness of the skin due to congestion of the capillaries)
4=minimum of 4 joints affected • marked diffuse swelling and erythema (redness of the skin due to congestion of the capillaries)
5=minimum entire paw, • unable to flex (Severe diffuse swelling and erythema redness of the skin due to congestion of the capillaries
Mice were enrolled randomly into treatment groups when a minimum mean paw score of 1.0 was established. The treatments started on the day of enrollment and continued for 12 days. Clinical scores were monitored daily for each animal in the treatment groups.

[9] = molecular target: EGFR (Homo sapiens, UniProt P00533); assay: kinase selectivity, EGFR; assay type: biochemical
[10] = system: human monocytes; assay: human monocyte cytokine release assay (IgG stimulation); assay type: cell-based; conditions: for release of IL-1β from human monocytes following FcγR stimulation with IgG: FIG. 2
Experimental: Human monocytes were isolated from Ficoll-gradient purified PBMC from healthy human volunteers using negative selection with EasySep (StemCells) magnetic beads. CD14+monocytes were then stimulated with IFN-gamma for 6 days, and then 2×10^6 cells were plated onto 10 μg/ml of human IgG (R&D Biosystems) coated onto Immulon 4 ELISA plates. […] Supernatants were collected from the plates and cytokines levels were determined with ELISA kits.

[11] = molecular target: Btk (Homo sapiens, UniProt Q06187); assay: Btk biochemical assays
[12] = system: human whole blood basophils; assay: whole blood basophil assay, CD63 after anti-IgE stimulation; assay type: cell-based; conditions: for EC50: human whole blood basophils, read-out: EC50 of inhibition of anti-IgE mediated upregulation of CD63
Experimental: Fresh whole blood was collected on the day of the experiment from a healthy volunteer. Whole blood is stimulated with 10 ng/mL of rhIL-3 (Invitrogen) and […] of anti-IgE (Beckman Coulter) in Basophil Stimulation Buffer (20 mM HEPES pH 7.4, 125 mM NaCl, 5 mM KCl, 2.5 mM CaCl2, 1 mM MgCl2, 0.5% Glucose, 0.1% BSA) at 37° C. for 15 min. The reaction was terminated by the addition of EDTA. The stimulated whole blood was then stained with a fluorescent three-antibody cocktail (FITC-Anti-CD63/PerCP-Anti-HLA-DR/PE-Anti-CD123) (BD Biosciences) at room temperature in the dark for 15 min. Following staining, blood was treated with 1×FACS Lysing solution (BD Biosciences) for 15 minutes to lyse the RBC. The lysed RBC supernatant was removed following centrifugation for […]. The cell pellet was resuspended and fixed in 0.5% paraformaldehyde in PBS. The percentage of basophil degranulation was determined by the % of CD63 cells that were CD123 positive and HLA-DR negative.

[13] = system: CD20+ B cells; assay: human B cell activation following BCR stimulation by anti-IgM (CD69); assay type: cell-based; conditions: read-out: EC50 of inhibition of human B cell activation
Experimental: as §1

[14] = in vitro; conditions: human, liver microsomes
[15] = molecular target: JAK1 (Homo sapiens, UniProt P23458); assay: kinase selectivity, JAK1; assay type: biochemical
[16] = system: CD20+ B cells; assay: B cell viability; assay type: cell-based, human; conditions: concentrations below 10 μM
Experimental: as §1

[17] = molecular target: T1, JAK3 (Homo sapiens, UniProt P52333); assay: kinase selectivity, JAK3; assay type: biochemical
T1 sequence (P52333 1-1124): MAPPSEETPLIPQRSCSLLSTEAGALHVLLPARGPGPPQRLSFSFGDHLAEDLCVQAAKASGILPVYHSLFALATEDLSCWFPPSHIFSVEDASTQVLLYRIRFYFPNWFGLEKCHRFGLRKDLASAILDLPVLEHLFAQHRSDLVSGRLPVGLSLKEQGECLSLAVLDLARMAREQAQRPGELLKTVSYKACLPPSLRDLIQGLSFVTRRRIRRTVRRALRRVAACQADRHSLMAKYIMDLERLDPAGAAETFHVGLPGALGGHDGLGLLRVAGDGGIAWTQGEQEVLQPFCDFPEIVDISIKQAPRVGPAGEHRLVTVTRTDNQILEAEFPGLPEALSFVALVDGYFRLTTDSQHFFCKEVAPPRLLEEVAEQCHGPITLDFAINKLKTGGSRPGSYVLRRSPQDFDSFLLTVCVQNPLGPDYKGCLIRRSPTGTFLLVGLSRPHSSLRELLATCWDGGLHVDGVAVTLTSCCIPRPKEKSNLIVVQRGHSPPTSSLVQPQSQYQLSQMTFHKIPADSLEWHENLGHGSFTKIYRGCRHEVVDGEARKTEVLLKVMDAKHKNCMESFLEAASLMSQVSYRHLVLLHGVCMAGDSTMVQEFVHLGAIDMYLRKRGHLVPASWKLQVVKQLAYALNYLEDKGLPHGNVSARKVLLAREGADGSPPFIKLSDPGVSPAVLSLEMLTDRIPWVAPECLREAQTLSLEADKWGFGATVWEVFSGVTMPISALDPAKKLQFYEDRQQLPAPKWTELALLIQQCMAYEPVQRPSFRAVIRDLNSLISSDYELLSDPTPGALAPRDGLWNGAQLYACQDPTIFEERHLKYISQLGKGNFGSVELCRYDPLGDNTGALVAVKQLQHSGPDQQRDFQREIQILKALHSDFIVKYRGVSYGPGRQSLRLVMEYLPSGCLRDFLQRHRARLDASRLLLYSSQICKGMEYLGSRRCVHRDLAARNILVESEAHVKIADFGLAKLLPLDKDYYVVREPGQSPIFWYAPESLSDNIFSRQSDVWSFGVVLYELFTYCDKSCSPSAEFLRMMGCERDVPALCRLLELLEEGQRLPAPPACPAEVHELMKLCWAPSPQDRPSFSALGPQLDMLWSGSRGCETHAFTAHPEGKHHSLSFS

[18] = molecular target: JAK2 (Homo sapiens, UniProt O60674); assay: kinase selectivity, JAK2; assay type: biochemical
[19] = system: murine collagen-antibody-induced arthritis model (CAIA model); assay: murine collagen-antibody-induced arthritis model (CAIA model); assay type: in vivo, DBA/1 mice; conditions: for dose that completely suppressed the development of arthritis: mouse, in vivo
Experimental: DBA/1 mice were injected intravenously with 2 mg of Arthrogen-CIA 5 mouse anti-bovine collagen (Chondrex) on day 0. Three days later, these mice were injected IP with 50 μg of LPS.
Mice were monitored for clinical symptoms daily with the criteria below.
0=normal 1=1 hind or fore paw joint affected 2=2 hind or fore paw joints affected 3=3 hind or fore paw joints affected 4=moderate (erythema and moderate swelling, or =4 digit joints affected) 5=severe (diffuse erythema and severe swelling entire paw, unable to flex digits)

Sequence of Btk (Q06187 whole entry): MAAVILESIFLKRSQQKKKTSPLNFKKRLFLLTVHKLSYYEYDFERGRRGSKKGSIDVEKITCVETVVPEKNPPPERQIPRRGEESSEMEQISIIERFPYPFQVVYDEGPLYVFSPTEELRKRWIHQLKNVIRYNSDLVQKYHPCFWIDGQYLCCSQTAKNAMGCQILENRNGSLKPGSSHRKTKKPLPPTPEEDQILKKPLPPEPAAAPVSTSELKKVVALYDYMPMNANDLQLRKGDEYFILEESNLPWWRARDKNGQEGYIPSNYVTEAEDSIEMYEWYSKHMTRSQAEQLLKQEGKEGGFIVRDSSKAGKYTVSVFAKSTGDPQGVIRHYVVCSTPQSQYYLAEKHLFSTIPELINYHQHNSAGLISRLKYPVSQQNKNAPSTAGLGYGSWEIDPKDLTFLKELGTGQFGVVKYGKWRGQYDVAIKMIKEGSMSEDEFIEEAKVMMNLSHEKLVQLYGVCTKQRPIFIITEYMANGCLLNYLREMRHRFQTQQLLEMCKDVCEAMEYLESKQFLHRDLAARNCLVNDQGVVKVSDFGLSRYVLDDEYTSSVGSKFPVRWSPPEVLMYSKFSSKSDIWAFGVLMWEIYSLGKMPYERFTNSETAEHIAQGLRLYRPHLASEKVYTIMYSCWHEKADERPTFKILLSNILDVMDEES
Sequence of VEGFR2 (P35968 20-1356, species assumed): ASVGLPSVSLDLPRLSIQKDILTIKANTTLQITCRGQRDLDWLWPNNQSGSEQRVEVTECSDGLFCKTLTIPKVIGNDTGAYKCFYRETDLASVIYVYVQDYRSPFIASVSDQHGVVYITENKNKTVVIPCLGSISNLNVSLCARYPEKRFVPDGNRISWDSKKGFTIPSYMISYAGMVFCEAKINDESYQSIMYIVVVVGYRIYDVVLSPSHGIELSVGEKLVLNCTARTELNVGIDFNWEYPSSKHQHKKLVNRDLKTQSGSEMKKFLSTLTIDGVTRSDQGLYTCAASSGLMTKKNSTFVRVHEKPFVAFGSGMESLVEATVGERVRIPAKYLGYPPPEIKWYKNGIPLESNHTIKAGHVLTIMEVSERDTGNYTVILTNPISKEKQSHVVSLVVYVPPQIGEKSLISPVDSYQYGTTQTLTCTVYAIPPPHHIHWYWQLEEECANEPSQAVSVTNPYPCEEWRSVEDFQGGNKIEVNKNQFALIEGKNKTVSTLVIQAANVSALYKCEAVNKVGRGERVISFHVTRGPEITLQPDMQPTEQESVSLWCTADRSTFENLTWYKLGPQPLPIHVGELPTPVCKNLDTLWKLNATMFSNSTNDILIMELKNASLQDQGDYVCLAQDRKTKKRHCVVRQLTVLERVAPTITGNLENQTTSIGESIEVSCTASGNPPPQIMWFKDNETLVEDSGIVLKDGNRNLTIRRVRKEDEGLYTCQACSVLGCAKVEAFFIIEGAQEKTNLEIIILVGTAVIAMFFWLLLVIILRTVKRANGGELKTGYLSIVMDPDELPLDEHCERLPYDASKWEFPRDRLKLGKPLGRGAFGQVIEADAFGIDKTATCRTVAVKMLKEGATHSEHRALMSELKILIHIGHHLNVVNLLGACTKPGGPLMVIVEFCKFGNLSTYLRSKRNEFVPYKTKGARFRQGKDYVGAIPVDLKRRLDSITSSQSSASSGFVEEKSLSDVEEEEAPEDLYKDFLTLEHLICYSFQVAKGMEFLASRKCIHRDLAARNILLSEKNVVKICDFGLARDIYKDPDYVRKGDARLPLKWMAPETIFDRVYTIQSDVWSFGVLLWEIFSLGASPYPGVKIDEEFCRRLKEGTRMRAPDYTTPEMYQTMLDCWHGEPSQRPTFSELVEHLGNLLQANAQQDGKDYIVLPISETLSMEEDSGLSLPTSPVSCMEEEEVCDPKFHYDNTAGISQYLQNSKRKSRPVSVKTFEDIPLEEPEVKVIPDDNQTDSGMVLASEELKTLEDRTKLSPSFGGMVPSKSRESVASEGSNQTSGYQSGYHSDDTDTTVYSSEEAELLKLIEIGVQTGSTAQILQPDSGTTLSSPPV
Sequence of JAK2 (O60674 whole entry): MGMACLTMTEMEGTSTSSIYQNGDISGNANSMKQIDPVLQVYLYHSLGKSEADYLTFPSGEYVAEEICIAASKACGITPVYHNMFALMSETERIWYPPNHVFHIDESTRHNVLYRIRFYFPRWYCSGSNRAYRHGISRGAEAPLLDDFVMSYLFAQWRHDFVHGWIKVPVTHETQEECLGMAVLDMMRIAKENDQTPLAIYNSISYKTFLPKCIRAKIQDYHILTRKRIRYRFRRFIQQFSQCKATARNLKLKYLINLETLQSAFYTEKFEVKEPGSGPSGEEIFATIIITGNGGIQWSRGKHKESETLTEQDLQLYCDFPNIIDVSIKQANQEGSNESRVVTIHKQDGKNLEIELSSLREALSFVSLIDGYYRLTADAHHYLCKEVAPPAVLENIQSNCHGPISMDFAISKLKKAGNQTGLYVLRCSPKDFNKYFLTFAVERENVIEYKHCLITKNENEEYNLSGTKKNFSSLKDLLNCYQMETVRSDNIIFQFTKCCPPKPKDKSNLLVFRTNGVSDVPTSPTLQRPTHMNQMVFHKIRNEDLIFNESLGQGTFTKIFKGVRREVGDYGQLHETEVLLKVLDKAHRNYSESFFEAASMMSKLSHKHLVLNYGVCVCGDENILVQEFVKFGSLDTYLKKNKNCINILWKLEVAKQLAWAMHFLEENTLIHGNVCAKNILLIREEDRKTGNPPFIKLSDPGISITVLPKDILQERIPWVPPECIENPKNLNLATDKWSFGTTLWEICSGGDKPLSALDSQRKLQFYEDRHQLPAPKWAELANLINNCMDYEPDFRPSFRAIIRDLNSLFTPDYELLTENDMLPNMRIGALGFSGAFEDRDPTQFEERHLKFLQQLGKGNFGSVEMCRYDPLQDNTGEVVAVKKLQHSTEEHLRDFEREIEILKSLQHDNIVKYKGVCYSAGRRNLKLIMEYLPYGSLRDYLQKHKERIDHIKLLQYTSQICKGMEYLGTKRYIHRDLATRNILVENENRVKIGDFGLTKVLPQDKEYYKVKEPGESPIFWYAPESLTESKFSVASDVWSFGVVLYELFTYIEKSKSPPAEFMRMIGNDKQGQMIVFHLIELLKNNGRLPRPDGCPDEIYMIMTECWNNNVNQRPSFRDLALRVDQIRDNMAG
Sequence of Abl (P00519 whole entry, species assumed): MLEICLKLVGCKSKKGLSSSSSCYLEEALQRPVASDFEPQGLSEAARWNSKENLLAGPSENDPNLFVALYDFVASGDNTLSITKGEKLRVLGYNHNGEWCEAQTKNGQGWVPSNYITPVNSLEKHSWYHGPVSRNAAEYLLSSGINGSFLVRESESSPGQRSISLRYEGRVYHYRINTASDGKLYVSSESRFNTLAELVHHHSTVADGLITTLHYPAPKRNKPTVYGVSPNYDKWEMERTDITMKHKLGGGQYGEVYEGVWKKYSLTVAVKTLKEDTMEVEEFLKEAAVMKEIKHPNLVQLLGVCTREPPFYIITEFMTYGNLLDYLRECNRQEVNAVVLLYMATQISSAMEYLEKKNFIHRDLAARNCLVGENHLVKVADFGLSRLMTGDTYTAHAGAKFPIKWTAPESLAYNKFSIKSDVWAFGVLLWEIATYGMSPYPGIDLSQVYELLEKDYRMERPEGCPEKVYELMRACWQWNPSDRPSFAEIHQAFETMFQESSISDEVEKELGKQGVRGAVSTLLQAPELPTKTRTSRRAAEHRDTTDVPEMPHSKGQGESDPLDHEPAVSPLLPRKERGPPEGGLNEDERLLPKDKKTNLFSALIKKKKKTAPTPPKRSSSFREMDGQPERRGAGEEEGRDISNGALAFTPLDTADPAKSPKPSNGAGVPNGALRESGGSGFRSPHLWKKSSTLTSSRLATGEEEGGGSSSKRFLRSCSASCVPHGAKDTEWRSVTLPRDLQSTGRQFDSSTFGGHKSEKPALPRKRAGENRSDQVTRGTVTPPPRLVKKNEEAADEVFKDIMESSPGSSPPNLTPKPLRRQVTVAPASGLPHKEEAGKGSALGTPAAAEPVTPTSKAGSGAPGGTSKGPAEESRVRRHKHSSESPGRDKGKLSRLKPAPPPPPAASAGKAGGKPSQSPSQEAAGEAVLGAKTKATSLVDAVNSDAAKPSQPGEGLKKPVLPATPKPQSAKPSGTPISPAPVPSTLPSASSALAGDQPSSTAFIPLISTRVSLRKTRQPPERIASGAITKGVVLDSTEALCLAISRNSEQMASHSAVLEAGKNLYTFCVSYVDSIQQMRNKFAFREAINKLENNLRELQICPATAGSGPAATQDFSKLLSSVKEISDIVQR

bioavailability ([2]; in vivo): 24.7% | inhibition of Abl [4]: no significant inhibition | inhibition of VEGFR2 [6]: no significant inhibition | hepatic extraction ratio [7]: 0.289 | EC50 of inhibition of overt manifestations of arthritis (clinical arthritic symptoms) ([8]; mice, CIA): 0.61 mg/kg/day | inhibition of EGFR [9]: no significant inhibition | IC50 [11]: 1 to 2 nM | selectivity as inhibitor of Btk ([11]; compared with Compound 2 or dasatinib): more selective inhibitor of Btk | EC50 ([12]; listed as (E)-1-4R)-3-(4-amino-3-(4-phenoxyphenyl)-1H-pyrazolo[3,4-d]pyrimidin-1-yl)pyrrol): ~92 nM | EC50 [13]: 2 nM | half-life [14]: 19.2 min | inhibition of JAK1 [15]: no significant inhibition | inhibition of JAK3 [17]: no significant inhibition | inhibition of JAK2 [18]: no significant inhibition
SMILES: CN(C)C/C=C/C(=O)N1CC[C@@H](n2nc(-c3ccc(Oc4ccccc4)cc3)c3c(N)ncnc32)C1 [Compound 1]
T cell viability [1]: did not decrease | allometric scaling of CL/F vs. Body Weight in multiple species [3]: linear | concentration up to which IgG-mediated phagocytosis was not inhibited [5]: > 10,000 nM | time after drug administration at which reversal of clinical arthritis was observed ([8]; 1.6 and 3.2 mg/kg/day): 1 days | clinical arthritic symptoms ([8]; 1.6 and 3.2 mg/kg/day, treatment for 12 days): reversed clinical arthritic symptoms | arthritic clinical scores ([8]; FIG. 4): reversal of arthritic clinical scores | inflammatory synovitis, pannus formation, synovial fluid cytokines, cartilage damage and bone erosion [8]: dose-dependently inhibited | concentration inhibiting cytokine release from human monocytes [10]: 20 to 100 nM | release of IL-1β from human monocytes following FcγR stimulation with IgG ([10]; listed as (E)-1-(R)-3-(4-amino-3-(4-phenoxyphenyl)-1H-pyrazolo[3,4-d]pyrimidin-1-yl)pyrro): suppressed the release of IL-1b; also recorded: monocyte release inhibition of IL-1β | basophil activation following anti-IgE stimulation ([12]; FIG. 1): basophil activation inhibition | B cell viability [16]: did not decrease | clinical arthritis ([19]; 0.8, 1.6 and 3.2 mg/kg/day, day 0 to day 14): completely prevented and suppressed clinical arthritis | dose that completely suppressed the development of arthritis [19]: 0.8 mg/kg/day

bioavailability ([2]; plasma, oral): 22.8% | EC50 [12]: 20 to 100 nM | EC50 [13]: 2 nM
SMILES: C=CC(=O)N1CCC[C@@H](n2nc(-c3ccc(Oc4ccccc4)cc3)c3c(N)ncnc32)C1 [Compound 2, reference compound]
T cell viability [1]: did not decrease | inflammatory synovitis, pannus formation, synovial fluid cytokines, cartilage damage and bone erosion [8]: dose-dependently inhibited | release of IL-1β from human monocytes following FcγR stimulation with IgG ([10]; listed as (R)-1-(3-(4-amino-3-(4-phenoxyphenyl)-1H-pyrazolo[3,4-d]pyrimidin-1-yl)piperidin)): suppressed the release of IL-1b; also recorded: monocyte release inhibition of IL-1β | B cell viability [16]: did not decrease | dose that completely suppressed the development of arthritis [19]: 6.25 mg/kg/day

SMILES: C[C@@H]1C[C@H]2[C@@H]3CCC4=CC(=O)C=C[C@]4(C)[C@@]3(F)[C@@H](O)C[C@]2(C)[C@@]1(O)C(=O)CO [dexamethasone, reference compound]
average clinical scores ([19]; 0.2 mg/kg, day 14): 1

SMILES: CN(Cc1cnc2nc(N)nc(N)c2n1)c1ccc(C(=O)N[C@@H](CCC(=O)O)C(=O)O)cc1 [methotrexate, reference compound]
clinical arthritis, disease course ([8]; 1.5 mg/kg/day): stabilized disease without further progression of arthritic swelling
